Structures are written as SMILES.

The target of this test is T1, 12-lipoxygenase (Sus scrofa, UniProt P16469).
T1 construct: porcine Leukocyte cytosol in buffer; from tissue; host or cells: porcine leukocyte cytosol
T1 sequence (P16469 1-663): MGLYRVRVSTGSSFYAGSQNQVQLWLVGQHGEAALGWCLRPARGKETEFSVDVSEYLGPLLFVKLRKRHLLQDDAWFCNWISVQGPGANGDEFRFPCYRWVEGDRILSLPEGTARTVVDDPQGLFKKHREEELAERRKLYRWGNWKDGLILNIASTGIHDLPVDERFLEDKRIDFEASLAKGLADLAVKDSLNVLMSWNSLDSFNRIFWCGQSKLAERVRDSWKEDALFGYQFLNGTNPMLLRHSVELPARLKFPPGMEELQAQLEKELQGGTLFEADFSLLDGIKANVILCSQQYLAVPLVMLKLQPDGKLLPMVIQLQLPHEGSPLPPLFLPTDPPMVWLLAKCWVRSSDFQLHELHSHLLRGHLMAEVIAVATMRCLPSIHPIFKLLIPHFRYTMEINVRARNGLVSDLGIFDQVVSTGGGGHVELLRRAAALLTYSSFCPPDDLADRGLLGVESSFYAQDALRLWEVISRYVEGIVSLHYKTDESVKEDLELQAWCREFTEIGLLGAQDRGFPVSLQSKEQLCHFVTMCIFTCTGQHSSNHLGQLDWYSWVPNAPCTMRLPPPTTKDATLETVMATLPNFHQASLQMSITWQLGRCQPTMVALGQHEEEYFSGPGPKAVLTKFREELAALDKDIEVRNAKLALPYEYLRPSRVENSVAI
As to the kind of experiment: 12-lipoxygenase inhibition in porcine leukocyte cytosol ([1-14C] arachidonic acid conversion to 12-HETE, TLC). Type of test: biochemical. Particulars: porcine leukocyte cytosol 0.075 mg/mL, pH 8.0, 5 min preincubation, 5 μM arachidonic acid, 15 min at 37° C. The procedure: The standard assay procedure is as follows:
Compounds of the present invention were added in 3 μL of DMSO at an appropriate concentration to porcine Leukocyte cytosol in buffer (final protein concentration of 0.075 mg/mL in 0.1M HEPES, 2 mM caCl2, 1 mM MgCl2, pH=8.0) and preincubated for 5 min at 37° C. [1-^14 C] arachidonic acid was added (final concentration of 5 μM) and the reactions were incubated for 15 min at 37° C. and terminated by the addition of HCl. Total reaction volume was 100 μL. Assays also included reduced glutathione in the assay at 25 μM or following the assay at 1 mM and/or cold carrier 12-HETE and arachidonic acid added at the end of the incubation at concentrations of 5 and 100 μM, respectively. Sample was extracted with water-saturated ethyl acetate and the extracts were spotted onto TLC plates. The plates were developed with dichloromethane/ethyl acetate/acetic acid in a ratio of 70:30:1. Under these conditions, the Rf's of 12-HETE and arachidonic acid are 0.30 and 0.45 , respectively. The percentage conversion to 12-HETE was calculated from the percentage of the total ^14 C on the TLC plate that coelutes with a standard of 12-HETE.
In general, IC50 refers to the midpoint of a concentration-inhibition curve. `CCCCCCCCCC[C@@H]1C[C@H](c2ccccc2)CC(=O)N1O` (relative stereo) [1(b), cis-1-hydroxy-6-decyl-4-phenyl-piperidin-2-one] returned a 50% inhibitory concentration (IC50) of 600 nM.

Consider `CCCCCCCCCCCCCC[C@@H]1[C@H](c2ccccc2)CCC(=O)N1O` (relative stereo) [1(cc), cis-1-Hydroxy-5-phenyl-6-tetradecyl-piperidin-2-one], for which inhibition was half-maximal at 740 nM (IC50).

With `CCCCCCCCCCCCCCCCCC[C@H]1C[C@H](c2ccccc2)CC(=O)N1O` (relative stereo) [1(i), trans-1-hydroxy-6-octadecyl-4-phenylpiperidin-2-one], 10000 nM corresponded to half-maximal inhibition (IC50).

As to `CCCCCCCCCCCC[C@@H]1C[C@H](c2ccccc2)CC(=O)N1O` (relative stereo) [1(d), cis-1-hydroxy-6-dodecyl-4-phenyl-piperidine-2-one], the midpoint of inhibition, the IC50, lay at 300 nM.

On to `CCCCCCCCC[C@@H]1CC(=O)N(O)C[C@H]1c1ccccc1` (relative stereo) [1(tt), trans-1-Hydroxy-4-nonyl-5-phenyl-piperidin-2-one], for which it took 600 nM to reach half-maximal inhibition (IC50).

The compound `O=C1CC[C@@H](c2ccccc2)[C@@H](CCCc2ccccc2)N1O` (relative stereo) [1(ww), cis-1-Hydroxy-5-phenyl-6-(3-phenylpropyl)-piperidin-2-one] came in with an IC50 of 900 nM.

As for `CCCCCCCCCCCC[C@@H]1C(=O)N(O)CC[C@@H]1c1ccccc1` (relative stereo) [1(r), cis-1-hydroxy-4-phenyl-3-dodecylpiperidin-2-one], the IC50 amounted to 800 nM.

The compound `CCCCCCCC[C@@H]1C[C@H](c2ccc3ccccc3c2)CC(=O)N1O` (relative stereo) [1(p), cis-1-hydroxy-4-(2-naphthyl)-6-octylpiperidin-2-one] returned an IC50 of 90 nM.

Turning to `CCCCCCCCCCCCCCCCCC[C@@H]1C[C@H](c2ccccc2)CC(=O)N1O` (relative stereo) [1(h), cis-1-hydroxy-6-octadecyl-4-phenylpiperidin-2-one], the IC50 was > 10000 nM.

Compound `CCCCCCCCCCCC[C@H]1C[C@H](Cc2ccccc2)CC(=O)N1O` (relative stereo) [1(mm), trans-4-Benzyl-6-dodecyl-1-hydroxy-piperidin-2-one] gave a half-maximal inhibitory concentration (IC50) of 800 nM.

In turn, `O=C1CC[C@@H](c2ccccc2)[C@H](CCCc2ccccc2)N1O` (relative stereo) [1(xx), trans-1-Hydroxy-5-phenyl-6-(3-phenylpropyl)-piperidin-2-one] yielded an IC50 of 1000 nM.

On to `CCCCCCCCCCCC[C@@H]1C(=O)N(O)CC[C@H]1c1ccccc1` (relative stereo) [1(s), trans-1-hydroxy-4-phenyl-3-dodecylpiperidin-2-one], for which 700 nM corresponded to half-maximal inhibition (IC50).

With `O=C1C[C@@H](c2ccccc2)C[C@H](CCCCCCCc2ccccc2)N1O` (relative stereo) [1(m), trans-1-hydroxy-4-phenyl-6-(7-phenylheptyl)-piperidin-2-one], half-maximal inhibition (IC50) required 200 nM.

For the compound `CCCCCCCC[C@H]1C[C@H](c2ccccc2)CC(=O)N1O` (relative stereo) [1(a), trans-1-hydroxy-6-octyl-4-phenylpiperidin-2-one], the half-inhibitory concentration (IC50) came out at 150 nM.

Consider `CCCCCCCCCCCCCC[C@H]1C[C@H](Cc2ccccc2)CC(=O)N1O` (relative stereo) [1(oo), trans-4-Benzyl-1-hydroxy-6-tetradecyl-piperidin-2-one], for which it took 700 nM to reach half-maximal inhibition (IC50).

`CCCCCCCCCCCCCC[C@H]1[C@H](c2ccccc2)CCC(=O)N1O` (relative stereo) [1(bb), trans-1-Hydroxy-5-phenyl-6-tetradecyl-piperidin-2-one] returned an IC50 of 2000 nM.

As to `O=C1C(c2ccccc2)C(CCCc2ccccc2)CCN1O` (stereo not drawn) [1(vv), 1-Hydroxy-3-phenyl-4-(3-phenylpropyl)-piperidin-2-one], the midpoint of inhibition, the IC50, lay at 1000 nM.

The compound `CCCCCCCC[C@@H]1C[C@H](c2cccc3ccccc23)CC(=O)N1O` (relative stereo) [1(n), cis-1-hydroxy-4-(1-naphthyl)-6-octylpiperidin-2-one] had an IC50 of 700 nM.

Values taken from US5292884A, “Cyclic hydroxamic acids” (Biomide Investment Limited Partnership, priority 1992, dated 1994).
